Test results published in article PMC9886550, “Molecular mechanism of topoisomerase poisoning by the peptide antibiotic albicidin” (Nature Catalysis, 2023).
In brackets after ≈: the same amount, converted by molar mass. Where two headings read alike, the source gives them in different places. Marks after values point to notes of the source that are not given here.

Experiments:
[1] = test system: selected Gram-negative and Gram-positive microorganisms; assay: MIC activity groups over all tested strains; type: cell-based; parameters: key: a: most potent; b: intermediate; least active; conditions: MIC panel
Experimental: (§1) MIC values were determined according to the ninth edition of the Approved Standard M07-A9. The test was carried out for six different bacterial strains (E. coli DSM 1116 (Gram-negative), E. coli BW25113 (Gram-negative), B. subtilis DSM 10 (Gram-positive), M. luteus DSM 1790 (Gram-positive), M. phlei DSM 750 (Gram-positive), S. typhimurium TA 100 (Gram-negative). First, 20 µl of glycerol stock of each strain was inoculated in 20 ml LB (Lennox) followed by incubation overnight at 37 °C, 200 r.p.m. The test inoculum was adjusted by the 0.5 McFarland Standard. Within 15 min of preparation, the adjusted inoculum suspension was diluted in MHBII so that each well contained approximately 5 × 10^5 c.f.u. ml^−1 in a final volume of 100 µl. Then, 95 µl of the inoculum was applied per well and 5 µl of the (diluted) albicidins was added. For dilutions, the dry powders were dissolved in dimethylsulfoxide (DMSO) with a concentration of 2.56 mg ml^−1, and the obtained stock solutions were further diluted in DMSO. Next, 5 µl of each antibiotic dilution was applied to the microdilution tray to reach final concentrations of 8 to 0.016 µg ml^−1. One row of each well plate served as a growth control without antibiotic and another row of the microdilution tray served as a sterility control (only MHBII media). The antimicrobial effect of the solvent was tested by adding 5 µl DMSO to several wells. Purity check and cell titre control were performed according to International Standard M07-A9 on Mueller–Hinton II Agar. Both microdilution trays and agar plates were incubated at 37 °C for 20 h.

M. phlei DSM750 = assay: MIC determination (microdilution, M07-A9); type: cell-based; conditions: Mycolicibacterium phlei
Experimental: as §1

E. coli DSM116 = assay: MIC determination (microdilution, M07-A9); type: cell-based
Experimental: as §1

M. luteus DSM1790 = assay: MIC determination (microdilution, M07-A9); type: cell-based
Experimental: as §1

E. coli BW25113 = assay: MIC determination (microdilution, M07-A9); type: cell-based; conditions: E. coli BW25113
Experimental: as §1

S. typhimurium TA100 = assay: MIC determination (microdilution, M07-A9); type: cell-based
Experimental: as §1

B. subtilis DSM10 = assay: MIC determination (microdilution, M07-A9); type: cell-based; conditions: Bacillus subtilis
Experimental: as §1

WT E. coli gyrase = target: T1, WT E. coli gyrase (Escherichia coli, UniProt P0AES4+P0AES6); assay: biochemical; type: biochemical; conditions: WT gyrase 20 nM; in words
T1 construct: alternative cryo-EM approach involving full-length E. coli gyrase; 10-His (cleaved yes); Twin-Strep (cleaved yes); made in house
Experimental: For DNA gyrase supercoiling assays to characterize gyrase mutants, 15 µl reactions were set up containing 250 ng of relaxed DNA, E. coli gyrase supercoiling buffer (35 mM Tris–Cl pH 7.5, 24 mM KCl, 4 mM MgCl2, 2 mM DTT, 1.8 mM spermidine, 1 mM ATP, 6.0% (w/v) glycerol, and 0.1 mg ml^−1 BSA), gyrase subunits and inhibitors. Concentrations of enzyme and inhibitor are stated in the figure legends. Inhibitors were diluted in the following way to reduce the chance of precipitation: stock compound in 100% DMSO was diluted to 5 mM in 100% DMSO. This compound solution was diluted to 1 mM by stepwise addition of 1 µl of 50% DMSO with thorough mixing via pipetting after each addition. All subsequent dilutions up to 100 µM were performed in the same way using H2O. After this point, compounds were stable and could be diluted in the normal way. Reactions were incubated at 37 °C for 30 min before stopping with 15 µl chloroform:isoamyl alcohol (24:1 v/v) and 15 µl of STEB (40% (w/v) sucrose, 100 mM Tris–Cl pH 8, 10 mM EDTA, 0.5 mg ml^−1 bromophenol blue).
Cleavage assays were set up in the same way as supercoiling assays with some modifications. The concentration of enzyme was increased 4-fold relative to the supercoiling assay and reactions were incubated for 1 h before addition of 0.2% SDS and proteinase K (0.2 mg ml^−1) and further incubation at 37 °C for 30 min to trap cleavage complexes. Reactions were stopped in the same way as supercoiling assays.
Results were visualized by agarose gel electrophoresis: 1% agarose Tris-acetate-EDTA (TAE) gels were run without ethidium bromide (supercoiling) or with 10 µg ml^−1 ethidium bromide (cleavage) at 8 V cm^−1.
DNA cleavage gels were analysed using densitometry (ImageJ). Experiments were carried out in triplicate and expressed as mean ± s.d. Curves were fitted using OriginPro 2021 (Origin Lab) according to a modified Hill equation:1 y=cI+(cF−cI)[…]/(k^n+x^n) where y is the percentage of cleaved DNA, cI is the initial cleavage, cF is the final cleavage, k is the CC50 (the concentration of inhibitor that results in cleavage of 50% of DNA), n is a slope factor and x is the inhibitor concentration.

E. coli gyrase = target: T2, E. coli gyrase (Escherichia coli, UniProt P0AES4+P0AES6); assay: Gyrase cleavage of linear DNA fragments (Mu217 and others); type: biochemical; conditions: in words
T2 construct: alternative cryo-EM approach involving full-length E. coli gyrase; 10-His (cleaved yes); Twin-Strep (cleaved yes); made in house
Experimental: Mu217 DNA (25 nM) was incubated with 0.4 µM gyrase and indicated concentrations (1 or 10 µM) of diazirine-labelled albicidin (photo-Albi, φAlbi) in a volume of 20 µl (~70 ng DNA) at 37 °C for 30 min in gyrase cleavage buffer (see section 'Topoisomerase assays'). For CFX competition experiments, 30 µM CFX was added first, followed by the albicidin. Reactions were either irradiated with ultraviolet 365 nm (benchtop transilluminator) with cooling (ice) for 30 min or left on ice for 30 min (‘dark’). Then, 0.2% SDS and 0.2 mg ml^−1 proteinase K were added to both samples, which were incubated for another 30 min. Reactions were mixed with loading dye (STEB) and chloroform:isoamyl alcohol (24:1 v/v) before vortexing and centrifugation. The aqueous phase was loaded on 4–20% TBE (Tris–borate–EDTA) polyacrylamide gel (Thermo) and ran for 1 h at 150 V. DNA was visualized with SYBR Gold (Thermo) staining.
Extended Data Fig. 1 Length dependency of albicidin-mediated DNA cleavage. Position of cleaved DNA indicated by arrows and red dots. ATP and ADPNP were added as indicated, (----) stands for no nucleotide added. 20 nM gyrase, 1 µM albicidin and 25 nM DNA was used in each reaction.
Extended Data Fig. 5 Photocrosslinking of diazirine-labelled albicidin (photo-Albi) to the DNA. a. Structures of N-terminal photo-Albi and control compound. b. DNA cleavage assay with Mu217 fragment and indicated concentrations of compounds. The labelled DNA band appearing upon irradiation of a photo-compound when bound to the complex is marked by a yellow star. c. Ciprofloxacin competition experiment. Pre-incubation with excess CFX prevents albicidin binding and crosslinking. Details of the experiment are available in Methods section.

[2] = first value in cell (biological replicate)
[3] = second value in cell (biological replicate)
[4] = E. coli DSM116, second value in cell (biological replicate)
[5] = Escherichia coli, E. coli DSM116, first value in cell (biological replicate), read-out: MIC
[6] = Micrococcus luteus, first value in cell (biological replicate), read-out: MIC
[7] = Escherichia coli, first value in cell (biological replicate), read-out: MIC
[8] = Salmonella enterica, first value in cell (biological replicate), read-out: MIC

T1 sequence (P0AES4 whole entry, one chain of several): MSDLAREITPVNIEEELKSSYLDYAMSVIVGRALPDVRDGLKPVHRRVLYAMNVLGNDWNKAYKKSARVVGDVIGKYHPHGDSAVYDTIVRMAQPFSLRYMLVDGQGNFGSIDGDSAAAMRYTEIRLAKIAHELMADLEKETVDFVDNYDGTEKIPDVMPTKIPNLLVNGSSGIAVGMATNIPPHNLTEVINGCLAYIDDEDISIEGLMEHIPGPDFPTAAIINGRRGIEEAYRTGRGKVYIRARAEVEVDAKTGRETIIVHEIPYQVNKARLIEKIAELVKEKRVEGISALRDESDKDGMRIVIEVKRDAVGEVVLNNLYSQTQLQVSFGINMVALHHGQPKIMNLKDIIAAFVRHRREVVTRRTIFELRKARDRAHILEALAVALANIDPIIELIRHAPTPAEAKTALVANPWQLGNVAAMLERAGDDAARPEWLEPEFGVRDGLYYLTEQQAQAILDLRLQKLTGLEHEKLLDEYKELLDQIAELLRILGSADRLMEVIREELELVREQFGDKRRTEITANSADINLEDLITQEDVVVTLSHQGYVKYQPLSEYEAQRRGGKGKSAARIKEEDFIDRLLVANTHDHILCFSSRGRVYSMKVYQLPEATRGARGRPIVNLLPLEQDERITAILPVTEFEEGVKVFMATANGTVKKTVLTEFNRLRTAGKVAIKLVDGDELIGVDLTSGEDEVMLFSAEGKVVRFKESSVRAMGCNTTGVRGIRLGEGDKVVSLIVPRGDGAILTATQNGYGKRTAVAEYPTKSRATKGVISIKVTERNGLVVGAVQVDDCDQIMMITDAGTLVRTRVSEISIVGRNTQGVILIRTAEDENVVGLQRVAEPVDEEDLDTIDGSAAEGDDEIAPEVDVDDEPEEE
T2 sequence (P0AES4 whole entry, the tested form may be a part, one chain of several): as the sequence (P0AES4 whole entry, one chain of several) above

Compound | activity group (superscript letter) [1] | MIC (M. phlei DSM750; [2]) [µg/mL] | MIC (M. phlei DSM750; [3]) [µg/mL] | MIC (E. coli DSM116; [4]) | MIC (E. coli DSM116; [5]) [µg/mL] | MIC (M. luteus DSM1790; [6]) [µg/mL] | MIC (M. luteus DSM1790; [3]) | MIC (E. coli BW25113; [7]) [µg/mL] | MIC (S. typhimurium TA100; [8]) [µg/mL] | MIC (B. subtilis DSM10; [2]) [µg/mL] | MIC (B. subtilis DSM10; [3]) [µg/mL] | activity in a DNA cleavage assay relative to albicidin (WT E. coli gyrase) | MIC (E. coli DSM116; Escherichia coli, DSM116, E. coli DSM116, first value in cell (biological replicate), read-out: MIC) [µg/mL] | MIC (E. coli DSM116; Escherichia coli, DSM116, E. coli DSM116, second value in cell (biological replicate), read-out: MIC) [µg/mL] | MIC (E. coli BW25113; [3]) | MIC (S. typhimurium TA100; [3]) | activity against gyrase (E. coli gyrase)
COc1ccccc1NC(=O)c1ccc(NC(=O)[C@H](Cc2c[nH]nn2)NC(=O)c2ccc(NC(=O)c3ccc(C#N)cc3)cn2)cn1 [AE-1] | AE-1^c | > 8 | > 8 | >8.0 >8.0 µg ml^−1 | > 8 | > 8 | >8.0 >8.0 µg ml^−1 | > 8 | > 8 | > 8 | > 8 |  |  |  |  |  | 
COc1ccccc1NC(=O)c1ccc(NC(=O)[C@H](Cc2c[nH]nn2)NC(=O)c2ccc(NC(=O)c3ccc(C#N)cc3)cc2)cn1 [AE-2] | AE-2^c | > 8 | > 8 | >8.0 >8.0 µg ml^−1 | > 8 | > 8 | >8.0 >8.0 µg ml^−1 | > 8 | > 8 | > 8 | > 8 |  |  |  |  |  | 
COc1ccccc1NC(=O)c1ccc(NC(=O)[C@H](Cc2c[nH]nn2)NC(=O)c2ccc(NC(=O)/C(C)=C/c3ccc(O)cc3)cc2)cn1 [AE-3] | AE-3^c | > 8 | > 8 | >8.0 >8.0 µg ml^−1 | > 8 | > 8 | >8.0 >8.0 µg ml^−1 | > 8 | > 8 | > 8 | > 8 |  |  |  |  |  | 
CC(C)Oc1ccccc1NC(=O)c1ccc(NC(=O)[C@H](Cc2c[nH]nn2)NC(=O)c2ccc(NC(=O)c3ccc(C#N)cc3)cn2)cn1 [AE-4] | AE-4^c | > 8 | > 8 | >8.0 >8.0 µg ml^−1 | > 8 | > 8 | >8.0 >8.0 µg ml^−1 | > 8 | > 8 | > 8 | > 8 |  |  |  |  |  | 
COc1c(NC(=O)c2ccc(NC(=O)[C@H](Cc3c[nH]nn3)NC(=O)c3ccc(NC(=O)c4ccc(C#N)cc4)cc3)cn2)ccc(F)c1F [AE-5] | AE-5^c | > 8 | > 8 | >8.0 >8.0 µg ml^−1 | > 8 | > 8 | >8.0 >8.0 µg ml^−1 | > 8 | > 8 | > 8 | > 8 |  |  |  |  |  | 
COc1c(NC(=O)c2ccc(NC(=O)c3ccc(NC(=O)[C@H](Cc4c[nH]nn4)NC(=O)c4ccc(C#Cc5ccc(C#N)cc5)cc4)cn3)c(OC)c2O)ccc(C(=O)O)c1O [Alkyne–Albi] | Alkyne–Albi^a | 0.25 (≈ 0.299 µM) | 0.5 (≈ 0.598 µM) | <0.016 <0.016 µg ml^−1 | < 0.016 | < 0.016 | <0.016 <0.016 µg ml^−1 | < 0.016 | < 0.016 | 0.063 (≈ 0.0754 µM) | 0.125 (≈ 0.15 µM) | as active as albicidin |  |  |  |  | 
COc1c(NC(=O)c2ccc(NC(=O)c3ccc(NC(=O)[C@H](Cc4c[nH]nn4)NC(=O)c4ccc(NC(=O)/C(C)=C/c5ccc(O)cc5)cc4)cn3)c(OC)c2O)ccc(C(=O)O)c1O [Azahis–Albi] |  | 0.125 (≈ 0.141 µM) | 0.5 (≈ 0.564 µM) |  |  | 0.031 (≈ 0.035 µM) |  | < 0.016 | < 0.016 | 0.031 (≈ 0.035 µM) | 0.063 (≈ 0.0711 µM) |  | < 0.016 | < 0.016 | <0.016 <0.016 µg ml^−1 | <0.016 <0.016 µg ml^−1 | 
C#CC[C@H](NC(=O)c1ccc(NC(=O)c2ccc(C3(C(F)(F)F)N=N3)cc2)cc1)C(=O)Nc1ccc(C(=O)Nc2ccc(C(=O)Nc3ccc(C(=O)O)c(O)c3OC)c(O)c2OC)nc1 [photo-Albi] |  |  |  |  |  |  |  |  |  |  |  |  |  |  |  |  | active against gyrase
